Tests used:
[1] = target: Casein kinase I isoform gamma-3 (Homo sapiens) (UniProt Q9Y6M4); test: Inhibition of CK1-gamma3 (unknown origin) at 0.45 uM relative to control
[2] = target: T1, MAP kinase-activated protein kinase 5 (Homo sapiens) (UniProt Q8IW41); test: Inhibition of PRAK (unknown origin) at 0.45 uM relative to control
T1 sequence (whole entry): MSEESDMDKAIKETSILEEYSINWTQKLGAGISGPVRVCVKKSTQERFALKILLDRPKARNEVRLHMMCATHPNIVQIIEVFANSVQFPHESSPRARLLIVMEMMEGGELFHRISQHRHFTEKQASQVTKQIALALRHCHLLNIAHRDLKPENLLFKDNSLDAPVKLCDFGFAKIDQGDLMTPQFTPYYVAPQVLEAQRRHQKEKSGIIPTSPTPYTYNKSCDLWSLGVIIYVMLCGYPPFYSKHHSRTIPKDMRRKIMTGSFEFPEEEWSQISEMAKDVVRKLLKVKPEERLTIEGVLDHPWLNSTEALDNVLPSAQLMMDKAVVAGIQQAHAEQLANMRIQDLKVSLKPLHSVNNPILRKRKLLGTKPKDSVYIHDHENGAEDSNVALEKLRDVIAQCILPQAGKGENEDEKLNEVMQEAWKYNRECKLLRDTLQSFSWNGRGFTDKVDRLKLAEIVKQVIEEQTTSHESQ

[3] = target: Protein kinase C delta type (Homo sapiens) (UniProt Q05655); test: Inhibition of PKC-delta (unknown origin) at 0.19 uM relative to control
[4] = target: T2, Testis-specific serine/threonine-protein kinase 2 (Homo sapiens) (UniProt Q96PF2); test: Inhibition of TSSK2 (unknown origin) at 0.19 uM relative to control
T2 sequence (whole entry): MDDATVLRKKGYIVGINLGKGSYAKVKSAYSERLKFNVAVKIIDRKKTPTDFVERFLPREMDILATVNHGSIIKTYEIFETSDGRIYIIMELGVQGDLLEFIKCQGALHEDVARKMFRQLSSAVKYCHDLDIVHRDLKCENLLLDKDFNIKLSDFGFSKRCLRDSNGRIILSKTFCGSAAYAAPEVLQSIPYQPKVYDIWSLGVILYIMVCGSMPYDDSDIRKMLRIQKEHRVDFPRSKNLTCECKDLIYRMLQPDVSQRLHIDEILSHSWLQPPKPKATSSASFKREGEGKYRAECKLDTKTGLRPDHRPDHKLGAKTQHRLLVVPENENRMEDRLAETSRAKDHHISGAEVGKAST

[5] = target: Serine/threonine-protein kinase Nek6 (Homo sapiens) (UniProt Q9HC98); test: Inhibition of NEK6 (unknown origin) at 0.19 uM relative to control
[6] = target: PAS domain-containing serine/threonine-protein kinase (Homo sapiens) (UniProt Q96RG2); test: Inhibition of PASK (unknown origin) at 0.19 uM relative to control
[7] = target: Calcium/calmodulin-dependent protein kinase type IV (Homo sapiens) (UniProt Q16566); test: Inhibition of CAMK4 (unknown origin) at 0.19 uM relative to control
[8] = target: Tyrosine-protein kinase ABL2 (Homo sapiens) (UniProt P42684); test: Inhibition of Arg (unknown origin) at 0.19 uM relative to control
[9] = target: Ribosomal protein S6 kinase alpha-1 (Homo sapiens) (UniProt Q15418); test: Inhibition of RSK1 (unknown origin) at 0.19 uM relative to control
[10] = target: Casein kinase I isoform epsilon (Homo sapiens) (UniProt P49674); test: Inhibition of CK1-epsilon (unknown origin) at 0.19 uM relative to control
Casein kinase I isoform epsilon (Homo sapiens), sequence (P49674 whole entry, looked up, canonical isoform): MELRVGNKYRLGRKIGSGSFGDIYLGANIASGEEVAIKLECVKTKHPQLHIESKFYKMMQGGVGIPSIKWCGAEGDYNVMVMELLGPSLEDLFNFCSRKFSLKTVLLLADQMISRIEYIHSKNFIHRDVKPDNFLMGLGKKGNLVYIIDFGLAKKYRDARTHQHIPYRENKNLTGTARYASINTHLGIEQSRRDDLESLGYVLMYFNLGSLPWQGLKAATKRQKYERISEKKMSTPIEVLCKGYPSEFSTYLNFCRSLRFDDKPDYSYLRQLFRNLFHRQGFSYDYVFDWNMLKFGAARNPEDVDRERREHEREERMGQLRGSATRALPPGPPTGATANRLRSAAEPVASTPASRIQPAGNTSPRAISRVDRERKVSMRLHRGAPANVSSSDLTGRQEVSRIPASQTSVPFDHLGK

[11] = target: Cyclin-dependent kinase 1/cyclin B1 (Homo sapiens) (UniProt P06493+P14635); test: Inhibition of CDK1/Cyclin B1 (unknown origin) at 0.19 uM relative to control; type: protein-complex assay
[12] = target: MAP/microtubule affinity-regulating kinase 3 (Homo sapiens) (UniProt P27448); test: Inhibition of c-TAK1 (unknown origin) at 0.19 uM relative to control
[13] = target: MAP kinase-interacting serine/threonine-protein kinase 2 (Homo sapiens) (UniProt Q9HBH9); test: Inhibition of MNK2 (unknown origin) at 0.19 uM relative to control
MAP kinase-interacting serine/threonine-protein kinase 2 (Homo sapiens), sequence (Q9HBH9 whole entry, looked up, canonical isoform): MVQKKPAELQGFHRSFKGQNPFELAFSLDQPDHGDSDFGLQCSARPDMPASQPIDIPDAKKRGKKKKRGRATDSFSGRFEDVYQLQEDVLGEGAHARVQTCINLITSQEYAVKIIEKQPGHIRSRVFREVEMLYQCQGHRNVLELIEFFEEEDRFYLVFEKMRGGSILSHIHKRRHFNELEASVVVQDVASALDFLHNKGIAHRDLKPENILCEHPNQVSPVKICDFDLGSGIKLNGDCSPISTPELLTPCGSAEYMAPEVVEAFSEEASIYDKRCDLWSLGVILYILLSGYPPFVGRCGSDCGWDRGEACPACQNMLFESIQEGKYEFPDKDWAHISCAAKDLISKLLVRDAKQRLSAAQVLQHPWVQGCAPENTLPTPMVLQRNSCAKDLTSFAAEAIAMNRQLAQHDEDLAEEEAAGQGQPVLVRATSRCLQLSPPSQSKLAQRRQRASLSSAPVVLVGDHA

[14] = target: Serine/threonine-protein kinase BRSK1 (Homo sapiens) (UniProt Q8TDC3); test: Inhibition of BRSK1 (unknown origin) at 0.19 uM relative to control
[15] = target: Tyrosine-protein kinase Fyn (Homo sapiens) (UniProt P06241); test: Inhibition of FYN (unknown origin) at 0.164 uM relative to control
[16] = target: Death-associated protein kinase 1 (Homo sapiens) (UniProt P53355); test: Inhibition of DAPK1 (unknown origin) at 0.164 uM relative to control
[17] = target: Interleukin-1 receptor-associated kinase 1 (Homo sapiens) (UniProt P51617); test: Inhibition of IRAK1 (unknown origin) at 0.164 uM relative to control
[18] = target: Tyrosine-protein kinase Srms (Homo sapiens) (UniProt Q9H3Y6); test: Inhibition of SRM (SRMS) (unknown origin) at 0.164 uM relative to control
[19] = target: Tyrosine-protein kinase HCK (Homo sapiens) (UniProt P08631); test: Inhibition of Hck (unknown origin) at 0.164 uM relative to control
Tyrosine-protein kinase HCK (Homo sapiens), sequence (P08631 2-526 limits assumed): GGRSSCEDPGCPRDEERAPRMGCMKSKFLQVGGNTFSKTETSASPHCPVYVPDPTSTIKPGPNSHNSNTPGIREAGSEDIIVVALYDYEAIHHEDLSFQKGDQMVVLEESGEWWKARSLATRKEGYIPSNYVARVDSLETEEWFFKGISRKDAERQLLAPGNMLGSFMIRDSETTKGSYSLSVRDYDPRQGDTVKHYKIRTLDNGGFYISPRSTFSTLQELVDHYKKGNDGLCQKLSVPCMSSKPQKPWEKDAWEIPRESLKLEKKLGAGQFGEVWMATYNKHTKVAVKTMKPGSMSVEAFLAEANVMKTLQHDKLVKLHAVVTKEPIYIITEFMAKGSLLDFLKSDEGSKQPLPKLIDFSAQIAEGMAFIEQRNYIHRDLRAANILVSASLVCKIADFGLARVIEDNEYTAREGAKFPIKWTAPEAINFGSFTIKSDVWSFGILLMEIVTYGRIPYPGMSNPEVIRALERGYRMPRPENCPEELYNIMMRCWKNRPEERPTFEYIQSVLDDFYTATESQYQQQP

[20] = target: Tyrosine-protein kinase Lck (Homo sapiens) (UniProt P06239); test: Inhibition of LCK (unknown origin) at 0.164 uM relative to control
Tyrosine-protein kinase Lck (Homo sapiens), sequence (P06239 2-509 limits assumed): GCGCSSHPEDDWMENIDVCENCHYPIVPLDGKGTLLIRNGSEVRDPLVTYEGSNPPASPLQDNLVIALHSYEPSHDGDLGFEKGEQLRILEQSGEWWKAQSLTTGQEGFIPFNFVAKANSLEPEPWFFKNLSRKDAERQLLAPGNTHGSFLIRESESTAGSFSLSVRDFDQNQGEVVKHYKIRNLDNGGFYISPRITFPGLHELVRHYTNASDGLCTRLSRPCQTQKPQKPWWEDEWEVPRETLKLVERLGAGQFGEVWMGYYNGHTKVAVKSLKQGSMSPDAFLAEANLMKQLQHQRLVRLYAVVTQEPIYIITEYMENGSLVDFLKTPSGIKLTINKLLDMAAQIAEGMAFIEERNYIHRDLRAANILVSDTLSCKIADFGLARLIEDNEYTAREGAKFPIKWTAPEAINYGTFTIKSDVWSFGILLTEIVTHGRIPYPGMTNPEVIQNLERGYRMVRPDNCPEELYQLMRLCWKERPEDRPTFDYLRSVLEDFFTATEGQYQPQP

[21] = target: Cyclin-dependent kinase 5/CDK5 activator 1 (Homo sapiens) (UniProt Q00535+Q15078); test: Inhibition of CDK5/p25 (unknown origin) at 0.164 uM relative to control; type: protein-complex assay
Cyclin-dependent kinase 5/CDK5 activator 1 (Homo sapiens), sequence (Q00535 whole entry): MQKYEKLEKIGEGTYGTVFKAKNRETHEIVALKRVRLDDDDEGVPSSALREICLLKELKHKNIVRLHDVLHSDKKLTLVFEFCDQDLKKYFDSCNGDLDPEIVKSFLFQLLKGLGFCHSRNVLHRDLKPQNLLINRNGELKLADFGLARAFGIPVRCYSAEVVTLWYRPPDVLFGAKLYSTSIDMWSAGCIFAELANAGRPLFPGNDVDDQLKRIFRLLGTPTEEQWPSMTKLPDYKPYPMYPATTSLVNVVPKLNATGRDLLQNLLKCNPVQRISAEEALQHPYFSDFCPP
Cyclin-dependent kinase 5/CDK5 activator 1 (Homo sapiens), sequence (Q15078 99-307 partner limits assumed): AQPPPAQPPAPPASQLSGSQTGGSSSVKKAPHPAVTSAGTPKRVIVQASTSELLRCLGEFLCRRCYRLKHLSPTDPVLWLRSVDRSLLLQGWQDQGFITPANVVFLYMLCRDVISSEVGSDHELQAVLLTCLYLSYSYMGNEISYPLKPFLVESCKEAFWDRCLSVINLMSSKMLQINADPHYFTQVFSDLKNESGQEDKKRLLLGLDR

[22] = target: Ephrin type-B receptor 2 (Homo sapiens) (UniProt P29323); test: Inhibition of EPHB2 (unknown origin) at 0.164 uM relative to control
[23] = target: Casein kinase I isoform epsilon (Homo sapiens) (UniProt P49674); test: Inhibition of CK1-epsilon (unknown origin) at 0.164 uM relative to control
[24] = target: MAP kinase-interacting serine/threonine-protein kinase 2 (Homo sapiens) (UniProt Q9HBH9); test: Inhibition of MNK2 (unknown origin) at 0.164 uM relative to control
[25] = target: Phosphorylase b kinase gamma catalytic chain, liver/testis isoform (Homo sapiens) (UniProt P15735); test: Inhibition of PhKg2 (unknown origin) at 0.164 uM relative to control
[26] = target: Proto-oncogene tyrosine-protein kinase ROS (Homo sapiens) (UniProt P08922); test: Inhibition of ROS (unknown origin) at 0.164 uM relative to control
Proto-oncogene tyrosine-protein kinase ROS (Homo sapiens), sequence (P08922 whole entry): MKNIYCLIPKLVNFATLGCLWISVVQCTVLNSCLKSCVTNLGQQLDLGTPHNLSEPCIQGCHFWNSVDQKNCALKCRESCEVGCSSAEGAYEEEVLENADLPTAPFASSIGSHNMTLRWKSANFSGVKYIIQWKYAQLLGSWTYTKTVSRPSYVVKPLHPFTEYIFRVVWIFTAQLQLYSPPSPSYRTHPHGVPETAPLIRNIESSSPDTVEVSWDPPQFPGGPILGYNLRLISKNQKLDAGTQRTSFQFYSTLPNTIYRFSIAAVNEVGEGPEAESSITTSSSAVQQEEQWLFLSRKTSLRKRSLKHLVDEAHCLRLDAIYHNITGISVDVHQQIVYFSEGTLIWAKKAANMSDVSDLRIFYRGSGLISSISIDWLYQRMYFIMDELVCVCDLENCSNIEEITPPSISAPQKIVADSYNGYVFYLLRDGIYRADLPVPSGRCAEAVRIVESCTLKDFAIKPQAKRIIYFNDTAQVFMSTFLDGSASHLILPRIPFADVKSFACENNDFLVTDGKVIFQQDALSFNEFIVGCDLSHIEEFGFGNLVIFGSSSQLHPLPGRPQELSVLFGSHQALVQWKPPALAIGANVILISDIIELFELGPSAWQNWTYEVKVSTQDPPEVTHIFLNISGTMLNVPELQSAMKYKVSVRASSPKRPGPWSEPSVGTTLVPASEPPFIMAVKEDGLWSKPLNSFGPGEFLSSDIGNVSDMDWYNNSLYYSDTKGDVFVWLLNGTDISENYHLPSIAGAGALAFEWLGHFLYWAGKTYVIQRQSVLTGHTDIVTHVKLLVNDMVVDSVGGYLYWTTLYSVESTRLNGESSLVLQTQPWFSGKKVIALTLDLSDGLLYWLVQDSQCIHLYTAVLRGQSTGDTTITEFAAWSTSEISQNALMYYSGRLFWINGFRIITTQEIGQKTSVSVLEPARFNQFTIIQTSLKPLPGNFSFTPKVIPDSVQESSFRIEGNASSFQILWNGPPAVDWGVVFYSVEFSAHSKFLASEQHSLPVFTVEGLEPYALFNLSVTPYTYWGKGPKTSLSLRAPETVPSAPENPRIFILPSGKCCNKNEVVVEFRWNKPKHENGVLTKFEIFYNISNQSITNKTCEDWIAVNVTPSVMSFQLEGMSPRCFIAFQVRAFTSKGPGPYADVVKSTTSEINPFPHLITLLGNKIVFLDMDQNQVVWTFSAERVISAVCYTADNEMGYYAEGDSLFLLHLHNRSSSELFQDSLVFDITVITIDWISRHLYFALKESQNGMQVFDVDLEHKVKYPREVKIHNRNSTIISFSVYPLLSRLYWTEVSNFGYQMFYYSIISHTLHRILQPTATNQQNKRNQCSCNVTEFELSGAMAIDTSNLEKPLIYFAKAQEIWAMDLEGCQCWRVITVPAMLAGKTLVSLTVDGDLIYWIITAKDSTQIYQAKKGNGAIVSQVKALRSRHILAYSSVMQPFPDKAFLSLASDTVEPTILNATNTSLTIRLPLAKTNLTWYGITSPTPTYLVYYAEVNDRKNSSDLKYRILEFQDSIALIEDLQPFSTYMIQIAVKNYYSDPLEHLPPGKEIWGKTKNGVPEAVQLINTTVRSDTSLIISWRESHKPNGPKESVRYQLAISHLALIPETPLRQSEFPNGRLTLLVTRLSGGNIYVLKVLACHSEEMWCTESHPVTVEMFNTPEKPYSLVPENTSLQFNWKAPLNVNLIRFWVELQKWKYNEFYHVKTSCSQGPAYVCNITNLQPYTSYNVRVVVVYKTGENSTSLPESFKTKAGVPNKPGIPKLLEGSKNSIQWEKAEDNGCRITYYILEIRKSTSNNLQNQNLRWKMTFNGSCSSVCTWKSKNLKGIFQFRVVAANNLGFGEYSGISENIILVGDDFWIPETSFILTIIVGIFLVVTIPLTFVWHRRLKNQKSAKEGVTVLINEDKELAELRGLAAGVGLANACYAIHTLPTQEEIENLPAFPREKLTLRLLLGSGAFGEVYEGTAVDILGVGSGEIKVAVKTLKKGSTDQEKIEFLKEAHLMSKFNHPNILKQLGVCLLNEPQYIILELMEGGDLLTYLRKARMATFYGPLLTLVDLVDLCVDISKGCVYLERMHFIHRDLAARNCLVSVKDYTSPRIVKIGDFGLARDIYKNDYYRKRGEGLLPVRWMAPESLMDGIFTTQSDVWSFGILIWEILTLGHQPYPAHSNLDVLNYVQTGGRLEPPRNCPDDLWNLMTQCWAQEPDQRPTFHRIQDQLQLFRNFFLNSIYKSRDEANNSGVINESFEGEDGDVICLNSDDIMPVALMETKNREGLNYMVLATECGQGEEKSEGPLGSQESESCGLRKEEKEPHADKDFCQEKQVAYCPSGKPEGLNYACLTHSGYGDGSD

[27] = target: Tyrosine-protein kinase ABL1 (Homo sapiens) (UniProt P00519); test: Inhibition of ABL (unknown origin) at 0.164 uM relative to control
[28] = target: Misshapen-like kinase 1 (Homo sapiens) (UniProt Q8N4C8); test: Inhibition of MINK (unknown origin) at 0.164 uM relative to control
[29] = target: Dual specificity protein kinase CLK3 (Homo sapiens) (UniProt P49761); test: Inhibition of CLK3 (unknown origin) at 0.164 uM relative to control

Cc1n[nH]c(C)c1-c1ccc2c(NC(=O)c3ccc(N4CCN(C)CC4)cc3)n[nH]c2c1
inhibition [1]: -0.7% | inhibition [2]: -1.7%

Cc1[nH]nc(C2CC2)c1-c1ccc2c(-c3ccc(N4CCN(C)CC4)nc3)n[nH]c2c1
inhibition [3]: 0% | inhibition [4]: -2% | inhibition [5]: -1% | inhibition [6]: -3.3% | inhibition [7]: 1.3% | inhibition [8]: 57% | inhibition [9]: 4.7% | inhibition [10]: 3.3% | inhibition [11]: 2.3% | inhibition [12]: 0.3% | inhibition [13]: 0% | inhibition [14]: 1.7%

COC(=O)Nc1cc(-c2c(C3CC3)n[nH]c2C)cc2[nH]ncc12
inhibition [15]: 10.3% | inhibition [16]: -3.7% | inhibition [17]: 3% | inhibition [18]: 3.3% | inhibition [19]: 0% | inhibition [20]: 17.3% | inhibition [21]: 6.3% | inhibition [22]: -1% | inhibition [23]: 2.7% | inhibition [24]: -0.7% | inhibition [25]: -1.7% | inhibition [26]: 4% | inhibition [27]: 7% | inhibition [28]: 7% | inhibition [29]: 3.7%

From ChEMBL document CHEMBL4118098, “Discovery of DS28120313 as a potent orally active hepcidin production inhibitor: Design and optimization of novel 4,6-disubstituted indazole derivatives” (Bioorg Med Chem Lett, 2017)
